15 compounds from US20240025863A1, “SOS1 PROTEIN DEGRADERS, PHARMACEUTICAL COMPOSITIONS THEREOF, AND THEIR THERAPEUTIC APPLICATIONS” (BioTheryX, Inc., priority 2020, published 2024) can be followed below.

What all share (type): cell-based
Experiment [1] deals with Lovo cells (G13D). The experiment is described as follows: Cell viability assay (CellTiter-Glo), Lovo cells. The following applies: Homo sapiens, 72 h; Lovo cells, 3 days incubation, CellTiter-Glo luminescence; read-out: Inhibition of Cancerous Cells IC50 Lovo (G13D). The method, boiled down:
(§1)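 Each cell line is treated with compound for 3 days at 37 °C under 5% CO2 in its own medium containing 2.5% FBS. ATP-based CellTiter-Glo luminescence, measured after 10 min shaking, serves as the viability signal relative to DMSO control.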
(In general: ATP-based viability assays read luminescence as a measure of living cells.)

The test system of experiment [2] is SW480 cells (G12V). Briefly: Cell viability assay (CellTiter-Glo), SW480 cells. The following applies: Homo sapiens, 72 h; SW480 cells, 3 days incubation, CellTiter-Glo luminescence; read-out: Inhibition of Cancerous Cells IC50 SW480 (G12V). The essentials:
as §1

In experiment [3] the test system is SW48 cells (wt). The experiment is described as follows: Cell viability assay (CellTiter-Glo), SW48 cells. The following applies: Homo sapiens, 72 h; SW48 cells, 3 days incubation, CellTiter-Glo luminescence; read-out: Inhibition of Cancerous Cells IC50 SW48 (wt). The method, boiled down: as §1
Experiment [4] has as its system H358 cells (G12C). Briefly: Cell viability assay (CellTiter-Glo), H358 cells. The following applies: Homo sapiens, NCI-H358, 72 h; H358 cells, 3 days incubation, CellTiter-Glo luminescence; read-out: Inhibition of Cancerous Cells IC50 H358 (G12C). The essentials:
as §1

A value given as a limit tells only on which side of the number the result lay.

On to `CNCc1ccccc1-c1csc([C@@H](C)Nc2nc(C)nc3cc(OCCCCCCCN4CCC(c5cc(F)cc6c5CN(C5CCC(=O)N(C)C5=O)C6=O)CC4)c(OC)cc23)c1` (stereo partly drawn) [Compound A52, 3-(6-Fluoro-4-(1-(7-((6-methoxy-2-methyl-4-(((R)-1-(4-(2-((methylamino)-methyl)phenyl)thiophen-2-yl)ethyl)amino)quinazolin-7-yl)oxy)heptyl)piperidin-4-yl)-1-oxoisoindolin-2-yl)-1-methylpiperidine-2,6-dione], for which the IC50 was determined as 42 nM in experiment [1], 170 nM in experiment [2], 170 nM in experiment [3] and 210 nM in experiment [4].

For the compound `COc1cc2c(N[C@H](C)c3cccc(Br)c3)nc(C)nc2cc1OCCCCCN1CCN(C(=O)COc2cc3c(cc2F)C(=O)N(C2CCC(=O)NC2=O)C3)CC1` (stereo partly drawn) [Compound A31, 3-(5-(2-(4-(5-((4-(((R)-1-(3-Bromophenyl)ethyl)amino)-6-methoxy-2-methyl-quinazolin-7-yl)oxy)pentyl)piperazin-1-yl)-2-oxoethoxy)-6-fluoro-1-oxoisoindolin-2-yl)-piperidine-2,6-dione], the IC50 was 230 nM in experiment [1], 4900 nM in experiment [2], 510 nM in experiment [3] and 4500 nM in experiment [4].

Consider `CNCc1ccccc1-c1csc([C@@H](C)Nc2nc(C)nc3cc(OCCCCCCCN4CCC(c5cc(F)cc6c5CN(C5CCC(=O)NC5=O)C6=O)CC4)c(OC)cc23)c1` (stereo partly drawn) [Compound A15, 3-(6-Fluoro-4-(1-(7-((6-methoxy-2-methyl-4-(((R)-1-(4-(2-((methylamino)-methyl)phenyl)thiophen-2-yl)ethyl)amino)quinazolin-7-yl)oxy)heptyl)piperidin-4-yl)-1-oxoisoindolin-2-yl)piperidine-2,6-dione], for which the IC50 in experiment [1] was 260 nM; in experiment [2] it was 370 nM; in experiment [3], 410 nM; in experiment [4] it was 550 nM.

In the case of `COc1cc2c(N[C@H](C)c3cccc(Br)c3)nc(C)nc2cc1C1CCN(CCCCCN2CCC(c3cc(F)cc4c3CN(C3CCC(=O)NC3=O)C4=O)CC2)CC1` (stereo partly drawn) [Compound A17, 3-(4-(1-(5-(4-(4-(((R)-1-(3-Bromophenyl)ethyl)amino)-6-methoxy-2-methyl-quinazolin-7-yl)piperidin-1-yl)pentyl)piperidin-4-yl)-6-fluoro-1-oxoisoindolin-2-yl)piperidine-2,6-dione], the IC50 in experiment [1] amounted to 760 nM; in experiment [2], 950 nM; in experiment [3], 1100 nM; in experiment [4], 1400 nM.

Turning to `COc1cc2c(N[C@H](C)c3cccc(Br)c3)nc(C)nc2cc1OCCCCN1CCN(C(=O)COc2cc(F)cc3c2CN(C2CCC(=O)NC2=O)C3=O)CC1` (stereo partly drawn) [Compound A13, 3-(4-(2-(4-(4-((4-(((R)-1-(3-Bromophenyl)ethyl)amino)-6-methoxy-2-methyl-quinazolin-7-yl)oxy)butyl)piperazin-1-yl)-2-oxoethoxy)-6-fluoro-1-oxoisoindolin-2-yl)-piperidine-2,6-dione], the IC50 was determined as 9800 nM in experiment [1], 6600 nM in experiment [2], 5900 nM in experiment [3] and 7400 nM in experiment [4].

`COc1cc2c(N[C@H](C)c3cccc(Br)c3)nc(C)nc2cc1OCCCCCN1CCC(c2cc3c(cc2F)C(=O)N(C2CCC(=O)NC2=O)C3)CC1` (stereo partly drawn) [Compound A21, 3-(5-(1-(5-((4-(((R)-1-(3-Bromophenyl)ethyl)amino)-6-methoxy-2-methyl-quinazolin-7-yl)oxy)pentyl)piperidin-4-yl)-6-fluoro-1-oxoisoindolin-2-yl)piperidine-2,6-dione]: the IC50 in experiment [1] was determined as 380 nM; in experiment [2], 430 nM; in experiment [3], 430 nM; in experiment [4], 1100 nM.

Take `COc1cc2c(N[C@H](C)c3cccc(Br)c3)nc(C)nc2cc1OCCCCCCCC(=O)NCc1ccc2c(c1)CN(C1CCC(=O)NC1=O)C2=O` (stereo partly drawn) [Compound A8, 8-((4-(((R)-1-(3-Bromophenyl)ethyl)amino)-6-methoxy-2-methylquinazolin-7-yl)oxy)-N-((2-(2,6-dioxopiperidin-3-yl)-1-oxoisoindolin-5-yl)methyl)octanamide]: the IC50 in experiment [1] stood at 970 nM; in experiment [2], 2100 nM; in experiment [3] it was 400 nM; in experiment [4] it was 1600 nM.

`COc1cc2c(N[C@H](C)c3cccc(Br)c3)nc(C)nc2cc1OCCCCCC(=O)NCc1scc2c1CN(C1CCC(=O)NC1=O)C2=O` (stereo partly drawn) [Compound A37, 6-((4-(((R)-1-(3-Bromophenyl)ethyl)amino)-6-methoxy-2-methylquinazolin-7-yl)oxy)-N-((5-(2,6-dioxopiperidin-3-yl)-4-oxo-5,6-dihydro-4H-thieno[3,4-c]pyrrol-1-yl)methyl)-hexanamide]: the IC50 in experiment [1], in experiment [2], in experiment [3] and in experiment [4] was > 10000 nM each time.

Turning to `COc1cc2c(N[C@H](C)c3cccc(Br)c3)nc(C)nc2cc1OCCCCCCCCCCNC(=O)[C@H](CC(C)C)NC(=O)[C@@H](O)[C@H](N)Cc1ccccc1` [Compound B8, (S)-2-((2S,3R)-3-Amino-2-hydroxy-4-phenylbutanamido)-N-(10-((4-(((R)-1-(3-bromophenyl)ethyl)amino)-6-methoxy-2-methylquinazolin-7-yl)oxy)decyl)-4-methylpentanamide], the IC50 was 390 nM in experiment [1], 550 nM in experiment [2], 1000 nM in experiment [3] and 1200 nM in experiment [4].

On to `COc1cc2c(N[C@H](C)c3cccc(Br)c3)nc(C)nc2cc1OCCCCCCCCCC(=O)NCc1scc2c1CN(C1CCC(=O)NC1=O)C2=O` (stereo partly drawn) [Compound A39, 10-((4-(((R)-1-(3-Bromophenyl)ethyl)amino)-6-methoxy-2-methylquinazolin-7-yl)oxy)-N-((5-(2,6-dioxopiperidin-3-yl)-4-oxo-5,6-dihydro-4H-thieno[3,4-c]pyrrol-1-yl)-methyl)decanamide], for which the IC50 in experiment [1] amounted to 790 nM; in experiment [2], 2600 nM; in experiment [3] it was 210 nM; in experiment [4] it was 680 nM.

Consider `COc1cc2c(N[C@H](C)c3cccc(Br)c3)nc(C)nc2cc1OCCCCCCCCC(=O)NCc1ccc2c(c1)CN(C1CCC(=O)NC1=O)C2=O` (stereo partly drawn) [Compound A9, 9-((4-(((R)-1-(3-Bromophenyl)ethyl)amino)-6-methoxy-2-methylquinazolin-7-yl)oxy)-N-((2-(2,6-dioxopiperidin-3-yl)-1-oxoisoindolin-5-yl)methyl)nonanamide], for which the IC50 stood at 47 nM in experiment [1], 1200 nM in experiment [2], 22 nM in experiment [3] and 820 nM in experiment [4].

On to `COc1cc2c(N[C@H](C)c3cccc(Br)c3)nc(C)nc2cc1OCCCCCN1CCN(C(=O)CNc2cc(F)cc3c2CN(C2CCC(=O)NC2=O)C3=O)CC1` (stereo partly drawn) [Compound A55, 3-(4-((2-(4-(5-((4-(((R)-1-(3-Bromophenyl)ethyl)amino)-6-methoxy-2-methyl-quinazolin-7-yl)oxy)pentyl)piperazin-1-yl)-2-oxoethyl)amino)-6-fluoro-1-oxoisoindolin-2-yl)piperidine-2,6-dione], for which the IC50 in experiment [1] was 640 nM; in experiment [2] it was 1800 nM; in experiment [3], 1400 nM; in experiment [4], 2000 nM.

For `COc1cc2c(N[C@H](C)c3cccc(Br)c3)nc(C)nc2cc1OCCCCCCCCCCCCCCCC(=O)NCc1scc2c1CN(C1CCC(=O)NC1=O)C2=O` (stereo partly drawn) [Compound A49, 16-((4-(((R)-1-(3-Bromophenyl)ethyl)amino)-6-methoxy-2-methylquinazolin-7-yl)oxy)-N-((5-(2,6-dioxopiperidin-3-yl)-4-oxo-5,6-dihydro-4H-thieno[3,4-c]pyrrol-1-yl)methyl)-hexadecanamide], the IC50 is 420 nM in experiment [1], 2800 nM in experiment [2], 670 nM in experiment [3] and > 10000 nM in experiment [4].

On to `COc1cc2c(N[C@H](C)c3cccc(Br)c3)nc(C)nc2cc1OCCCCCCCCCCC(=O)N[C@H](C(=O)N1C[C@H](O)C[C@H]1C(=O)NCc1ccc(-c2scnc2C)cc1)C(C)(C)C` [Compound D3, (2S,4R)-1-((S)-2-(11-((4-(((R)-1-(3-Bromophenyl)ethyl)amino)-6-methoxy-2-methylquinazolin-7-yl)oxy)undecanamido)-3,3-dimethylbutanoyl)-4-hydroxy-N-(4-(4-methyl-thiazol-5-yl)benzyl)pyrrolidine-2-carboxamide], for which the IC50 in experiment [1], in experiment [2], in experiment [3] and in experiment [4] was > 10000 nM in each case.

Turning to `COc1cc2c(N[C@H](C)c3cccc(Br)c3)nc(C)nc2cc1OCCCCCCCCN1CCC(c2cc(F)cc3c2CN(C2CCC(=O)NC2=O)C3=O)CC1` (stereo partly drawn) [Compound A58, 3-(4-(1-(8-((4-(((R)-1-(3-Bromophenyl)ethyl)amino)-6-methoxy-2-methyl-quinazolin-7-yl)oxy)octyl)piperidin-4-yl)-6-fluoro-1-oxoisoindolin-2-yl)piperidine-2,6-dione], the IC50 worked out at 300 nM in experiment [1], 360 nM in experiment [2], 420 nM in experiment [3] and 1200 nM in experiment [4].

In general, IC50 refers to the concentration at which inhibition is half-maximal.
